Results published in patent publication US20220289678A1, “COMPOUND, POLYMER, AND ORGANIC MATERIAL, AND OPTICAL APPARATUS, OPTICAL PART, AND IMAGE DISPLAY APPARATUS USING THE ORGANIC MATERIAL” (Sony Group Corporation, priority 2019, published 2022).
Read-outs that look alike come from different tables or passages of the source.

Legend:
[1] = Refractive index of compound, Abbe refractometer, calibration curve extrapolated; type: physicochemical; details: for Refractive index: average refractive index to light of 589 nm, 25±1° C., acetone or chloroform solution, extrapolated to volume fraction 1; for Refractive index compared with compound (11-1) according to Test Example 15: comparison in words
Method: Note that the refractive index can be measured by a critical angle method or a spectroscopic ellipsometry method. For example, in the critical angle method, measurement can be performed using an Abbe refractometer ER-1 manufactured by ERMA INC (measurement wavelengths are measured in visible light areas using 486 nm, 589 nm, 656 nm, and the like).
(§1) An acetone solution or a chloroform solution of each of the compounds according to Test Examples 1 to 15 was prepared, and the average refractive index to light of 589 nm at room temperature of 25±1° C. was measured by an Abbe refractometer (manufactured by ERMA INC., ER-1), and plotted against the volume fraction of each compound to prepare a calibration curve. Note that as the density of each compound, a value determined by a dry densitometer (AccuPyc II 1340-10CC (manufactured by Shimadzu Corporation)) was used. The calibration curve was extrapolated, and the refractive index when the volume fraction of each compound became 1 was used as the refractive index of each compound. The measurement results of the refractive index and density (g/cm^3) of each of the compounds according to Test Examples 1 to 15 are shown in Table 1 below.

[2] = Density by dry densitometer; type: physicochemical; details: dry densitometer AccuPyc II 1340-10CC
Method: as §1

[3] = Solubility in organic solvent, visual dissolution; type: physicochemical; details: ultrasonic stirring
Method: 20 mg of each of the compounds according to Test Examples 1 to 15 was weighed into a vial bottle, acetone was added to make a total amount of […], and then, the mixture was stirred with ultrasonic waves for 30 seconds. In the case where there was an undissolved product by visual recognition, a small amount of acetone was added thereto, and the mixture was stirred for another 30 seconds. The task described above was repeated, and the solubility was calculated from the total amount of solvents when all were dissolved.

[4] = commercial product, Osaka Gas Chemical Co., Ltd.; cited from earlier work

Row | Compound | Refractive index [1] | Refractive index compared with compound (11-1) according to Test Example 15 [1] | Density [2] | Solubility Chloroform [3] | Refractive index [4] | Solubility Acetone [3]
1 | C=CC(=O)OCCOc1cc(Cn2c3ccc4ccccc4c3c3c4ccccc4ccc32)cc(OCCOC(=O)C=C)c1 [(10-3)] | 1.71 | higher than the refractive index of the compound (11-1) | 1.29 g/mL | – | – | –
2 | C=CC(=O)OCCCCOc1cc(OCCCCOC(=O)C=C)cc(-n2c3ccc4ccccc4c3c3c4ccccc4ccc32)c1 [(10-11)] | – | higher than the refractive index of the compound (11-1) | – | – | – | –
3 | C=CC(=O)OCCOc1cc(OCCOC(=O)C=C)cc(-n2c3ccc4ccccc4c3c3c4ccccc4ccc32)c1 [(10-10)] | – | higher than the refractive index of the compound (11-1) | 1.27 g/mL | – | – | –
4 | C=CC(=O)OCCOc1cc(OCCOC(=O)C=C)cc(-n2c3ccccc3c3c4ccccc4ccc32)c1 [(10-12)] | 1.69 | higher than the refractive index of the compound (11-1) | 1.26 g/mL | – | – | –
5 | C=C(C)C(=O)OCC(Cn1c2ccc3ccccc3c2c2c3ccccc3ccc21)OC(=O)C(=C)C (centres unmarked) [(10-5)] | 1.72 | higher than the refractive index of the compound (11-1) | 1.26 g/mL | 19 wt % | – | –
6 | bisphenoxyethanol fluorene diacrylate [EA-0200] | – | – | – | – | 1.62 | –
7 | C=CC(=O)Oc1cc(Cn2c3ccc4ccccc4c3c3c4ccccc4ccc32)cc(OC(=O)C=C)c1 [(10-1)] | – | higher than the refractive index of the compound (11-1) | 1.3 g/mL | 17 wt % | – | 5 wt %
8 | C=CC(=O)OCCn1c2ccccc2c2ccccc21 [(11-1), acrylic acid 2-(9H-carbazol-9-yl) ethyl, reference compound] | 1.68 | – | 1.21 g/mL | – | – | 44 wt %
9 | C=CC(=O)OCCOCC(Cn1c2ccc3ccccc3c2c2c3ccccc3ccc21)OCCOC(=O)C=C (centres unmarked) [(10-6)] | – | higher than the refractive index of the compound (11-1) | – | – | – | –
10 | C=CC(=O)Oc1cc(OC(=O)C=C)cc(-n2c3ccc4ccccc4c3c3c4ccccc4ccc32)c1 [(6-8)] | – | higher than the refractive index of the compound (11-1) | 1.31 g/mL | – | – | 3 wt %
11 | C=C(C)C(=O)OCCOCC(Cn1c2ccc3ccccc3c2c2c3ccccc3ccc21)OCCOC(=O)C(=C)C (centres unmarked) [(10-7)] | – | higher than the refractive index of the compound (11-1) | – | – | – | –
12 | C=CC(=O)OCCn1c2ccccc2c2ccc3ccccc3c21 [(10-9)] | 1.74 | higher than the refractive index of the compound (11-1) | 1.31 g/mL | 13 wt % | – | 5 wt %
13 | C=CC(=O)OCC(Cn1c2ccc3ccccc3c2c2c3ccccc3ccc21)OC(=O)C=C (centres unmarked) [(10-4)] | 1.72 | higher than the refractive index of the compound (11-1) | 1.22 g/mL | – | – | –
14 | C=CC(=O)OCCn1c2ccc3ccccc3c2c2c3ccccc3ccc21 [(6-3)] | – | higher than the refractive index of the compound (11-1) | 1.22 g/mL | – | – | –
15 | C=CC(=O)Oc1cc(CCn2c3ccc4ccccc4c3c3c4ccccc4ccc32)cc(OC(=O)C=C)c1 [(10-2)] | 1.73 | higher than the refractive index of the compound (11-1) | 1.29 g/mL | – | – | 20 wt %
16 | C=CC(=O)OCCn1c2ccccc2c2c3ccccc3ccc21 [(10-8)] | 1.74 | higher than the refractive index of the compound (11-1) | 1.3 g/mL | – | – | 18 wt %
